# Paper PMC6754136 (PLoS ONE, 2019)
# Legend:
# BJ-hTERT cells = test: cellular GMP levels after inhibitor treatment; assay type: cell-based, human; settings: 20 μM inhibitor, 1 hour; mean ± SEM; p<0.001
# Protocol: For assaying PDE5 inhibitor effects on GMP levels in a cell line, BJ-hTERT cells were plated in 6-well plates (Corning) in the media described above. When cells were 80% confluent, fresh, pre-warmed media with DMSO (untreated controls) or 20 μM sildenafil, 3, or 7 was added and incubated for 1 hour. Maximum DMSO concentration in all samples was 0.2% of the total well volume. Cells were washed once with cold 0.9% NaCl. 800 μL of 80:20 methanol:water spiked with 500 nM isotopically labeled amino acids as internal standards was added while cells were on dry ice. Cells were detached with a cell scraper. Extracts were vortexed for 10 minutes and centrifuged at maximum speed at 4 °C to remove debris. Extracts were dried down in a vacuum dryer and stored at -80 °C. An additional sample was reserved for visual inspection of cell health by confocal light microscopy and for cell counting with a hemocytometer. Three independent assays were conducted in total, with 1–2 replicates per assay. To analyze GMP levels, samples were reconstituted in 50 μL LC-MS grade water and analyzed by HPLC-UV-MS as described in the general procedures and for enzyme inhibition and kinetics assays. The amino acid standards were analyzed in full scan positive mode with mass windows m/z 50–800. GMP peak areas were normalized to the peak area of the internal standard ^13C4, ^15N-threonine or ^13C6, ^15N3-histidine to account for variations in extraction or resuspension volume. The peak areas were then normalized to the average GMP peak area in undrugged controls and multiplied by 100 to obtain the percent GMP.
# [1] = target: T1, partially purified recombinant human PDE6C (Homo sapiens, UniProt P51160); test: PDE6C inhibition assay (GMP production); assay type: biochemical
# T1 construct: partially purified recombinant full-length human PDE6C; purchased SB Drug Discovery; host or cells: insect cells
# T1 sequence (P51160 whole entry): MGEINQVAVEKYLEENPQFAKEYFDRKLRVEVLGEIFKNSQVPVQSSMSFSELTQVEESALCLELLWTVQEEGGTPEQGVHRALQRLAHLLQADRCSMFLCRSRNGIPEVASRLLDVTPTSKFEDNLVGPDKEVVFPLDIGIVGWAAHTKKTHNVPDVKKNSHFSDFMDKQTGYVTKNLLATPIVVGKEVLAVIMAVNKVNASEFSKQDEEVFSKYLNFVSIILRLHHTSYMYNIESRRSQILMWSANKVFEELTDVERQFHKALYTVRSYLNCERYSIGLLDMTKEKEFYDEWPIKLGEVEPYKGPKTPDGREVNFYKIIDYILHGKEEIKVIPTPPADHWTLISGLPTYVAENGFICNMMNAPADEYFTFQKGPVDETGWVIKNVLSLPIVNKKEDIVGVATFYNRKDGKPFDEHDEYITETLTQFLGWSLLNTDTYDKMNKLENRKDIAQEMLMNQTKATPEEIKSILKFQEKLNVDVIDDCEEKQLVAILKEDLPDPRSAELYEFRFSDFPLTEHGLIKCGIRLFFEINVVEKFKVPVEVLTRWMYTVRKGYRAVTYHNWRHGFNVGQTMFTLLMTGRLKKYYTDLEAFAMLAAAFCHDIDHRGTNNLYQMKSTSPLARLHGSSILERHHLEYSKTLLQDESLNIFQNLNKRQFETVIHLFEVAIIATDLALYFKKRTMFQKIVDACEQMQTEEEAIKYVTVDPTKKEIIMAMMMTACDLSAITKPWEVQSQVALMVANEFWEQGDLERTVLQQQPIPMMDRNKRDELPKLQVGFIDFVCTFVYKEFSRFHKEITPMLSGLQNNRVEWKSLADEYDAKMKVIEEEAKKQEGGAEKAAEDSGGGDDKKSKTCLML
# Protocol: PDE6C inhibition was measured using the same method as described for PDE5 with modifications. […] The final reaction volume was 50 μL. […] Reactions were stopped as described above for PDE5 enzyme assays, and GMP was quantified as described above. […] The amount of GMP produced in these samples was subtracted from all samples before normalizing against untreated controls.
# [2] = target: purified recombinant human PDE5 (Homo sapiens, UniProt O76074); test: in vitro PDE5 inhibition assay measuring GMP production from cGMP (HPLC-UV-MS); assay type: biochemical; settings: 1 nM PDE5 catalytic domain, 0.3 μM cGMP, 25 °C, 15 min; mean of at least three replicates ± SEM; read-out: IC50
# Protocol: STRENDA guidelines were considered in the description of the following enzyme activity assays. PDE5 inhibition and kinetics assays were carried out according to the method of Kincaid and Manganiello [31] and Dell’Agli et al. 1 nM recombinant human PDE5 (catalytic domain consisting of amino acids 537–875, Abcam, ab125581) was pre-incubated with PDE5 inhibitors (synthesized in-house as described above or purchased from Selleck Chemicals) in 40 mM tris-hydrochloric acid, pH 7.8, containing 10 mM MgCl2. […]. PDE5 inhibitors were added to each reaction using a Hewlett-Packard D300 Digital Dispenser (Tecan). Maximum DMSO concentration was 0.1% of the final reaction volume for all samples. After incubation at 25 °C for 5 minutes to allow interaction between PDE5 and drugs, the reaction was started with the addition of 0.3 μM cGMP (Enzo Life Sciences, Inc.) and incubated at 25 °C for 15 minutes. The final reaction volume was 100 μL. Reactions were stopped with the addition of 100 μL of 0.1 M HCl and neutralized by adding 0.1 M NaOH until the pH was 7. […] The amount of GMP produced was measured by HPLC-UV-MS as described in the general procedures. Reaction mixture components were separated with a ramp gradient of solvent A and B run at a flow rate of 0.5 mL/min as follows: 0–4 minutes 0% B, 4–7 minutes 0–95% B, 7–8 minutes 95% B, 8–11.1 minutes 0% B. GMP was measured using selected reaction monitoring in positive mode for a centroid center mass of 152.
# A calibration curve using known concentrations of GMP was generated using the HPLC-UV-MS method described above to quantify the absolute amount of GMP in each reaction (S13 Fig). The linear range was from 5.9 nM to 3 μM. The limit of detection (LOD), defined as the lowest concentration producing a detectable peak above background, was 0.1 nM. The lower limit of quantification (LLOQ), defined as the lowest concentration used to generate a standard curve with r^2 > 0.95, was 5.9 nM. The upper limit of quantification (ULOQ), defined as the highest concentration used to generate a standard curve with r^2 > 0.95, was 3 μM. A GMP calibration curve was generated with each individual run of the HPLC-UV-MS.
# To measure the IC50 as a result of treatment with each icariin analog, the in vitro inhibition enzyme assay as described above was performed, and GMP levels were normalized to no-drug controls and multiplied by 100 to obtain the percent PDE5 activity. IC50 mean ± SEM values were determined by nonlinear-regression fitting of the percent PDE5 activity data using the [inhibitor] vs response–variable slope (four parameters) equation in Prism (version 7.0a and version 8). Top value was constrained to 100, all other parameters were unconstrained. To obtain the dose-response curves for visual confirmation of the best-fit line, we executed a nonlinear regression fitting using the log(inhibitor) vs. response—variable slope (four parameters) equation in Prism. […] AICc analysis (built into Prism) was used to confirm the best-fitting inhibition model. […] Inhibition models were also compared via visual inspection of the fit of the calculated curves on the Michaelis-Menten plots.
structure (smiles),measurement,setting,value
"COc1ccc(-c2oc3c(CC=C(C)C)c(O)cc(O)c3c(=O)c2OCCCO)cc1 [Compound 7, 3-O-(3-Hydroxypropyl)-Icaritin]","cellular GMP concentration, % of the GMP concentration in untreated control cells",BJ-hTERT cells,13 ± 2%
same,specificity for PDE5 over PDE6C,[1],does not show this specificity
same,"PDE6C inhibition, statistical significance","[1]; at 50x the PDE5 IC50, vs theoretical uninhibited mean of 100%",significantly inhibits PDE6C activity
same,IC50,[2],0.14 ± 0.06 µM
